Assay results published in ChEMBL document CHEMBL3102738, “Synthesis and biological evaluation of nitric oxide-donating analogues of sulindac for prostate cancer treatment” (Bioorg Med Chem, 2014).
Active and inactive are the calls of the source. No cut-off for these calls is given here.

What was measured:
PC-3 [1] = assay: Cytotoxicity against human PC3 cells assessed as cell viability at 50 uM after 72 hrs by crystal violet method (reference value: 95.69 +/- 7.66%); type: functional; settings: PC-3, 72 h, read-out: Activity
PC-3 [2] = assay: Cytotoxicity against human PC3 cells assessed as cell viability at 50 uM after 24 hrs by crystal violet method (reference value: 99.09 +/- 9.87%); type: functional; settings: PC-3, 24 h, read-out: Activity
PC-3 [3] = assay: Cytotoxicity against human PC3 cells assessed as cell viability at 50 uM after 48 hrs by crystal violet method (reference value: 100.87 +/- 4.87%); type: functional; settings: PC-3, 48 h, read-out: Activity
PC-3 [4] = assay: Cytotoxicity against human PC3 cells at 0.05 to 0.5 uM after 72 hrs by crystal violet method

SMILES	viability at 50 µM (PC-3 [1]) [%]	viability at 50 µM (PC-3 [2]) [%]	viability at 50 µM (PC-3 [3]) [%]	Activity (PC-3 [4])
CC1=C(CC(=O)OCCCCOc2no[n+]([O-])c2S(=O)(=O)c2ccccc2)c2cc(F)ccc2/C1=C\c1ccc(S(C)(=O)=O)cc1	38.8	67.9	49.9	
CC1=C(CC(=O)OCC(CO[N+](=O)[O-])(CO[N+](=O)[O-])CO[N+](=O)[O-])c2cc(F)ccc2/C1=C\c1ccc([S+](C)[O-])cc1 (centres undefined)	89.6	86	79.8	
CC1=C(CC(=O)OCc2cccc(Oc3no[n+]([O-])c3S(=O)(=O)c3ccccc3)c2)c2cc(F)ccc2/C1=C\c1ccc(S(C)(=O)=O)cc1	63.6	88.3	67.7	
CC1=C(CC(=O)OCCCOc2no[n+]([O-])c2S(=O)(=O)c2ccccc2)c2cc(F)ccc2/C1=C\c1ccc([S+](C)[O-])cc1 (centres undefined)	0	0	0	
CC1=C(CC(=O)OCCO[N+](=O)[O-])c2cc(F)ccc2/C1=C\c1ccc([S+](C)[O-])cc1 (centres undefined)	35.5	73	54.9	
CC1=C(CC(=O)OCC(CO[N+](=O)[O-])(CO[N+](=O)[O-])CO[N+](=O)[O-])c2cc(F)ccc2/C1=C\c1ccc(S(C)(=O)=O)cc1	95.3	101	84.5	
CSc1ccc(/C=C2/C(C)=C(CC(=O)OCCCCCCO[N+](=O)[O-])c3cc(F)ccc32)cc1	104	92.4	85.1	
CC1=C(CC(=O)OC(CO[N+](=O)[O-])CO[N+](=O)[O-])c2cc(F)ccc2/C1=C\c1ccc(S(C)(=O)=O)cc1	89.4	88	89	
CSc1ccc(/C=C2/C(C)=C(CC(=O)/N=c3\c[n+](-c4ccccc4)[n-]o3)c3cc(F)ccc32)cc1	77	89	90.8	
CC1=C(CC(=O)NCCOC(=O)/N=c2/c[n+](-c3ccccc3)[n-]o2)c2cc(F)ccc2/C1=C\c1ccc(S(C)(=O)=O)cc1	37.3	76.5	45.9	inactive
CSc1ccc(/C=C2/C(C)=C(CC(=O)OCCCCO[N+](=O)[O-])c3cc(F)ccc32)cc1	17.1	49.4	28.4	
CC1=C(CC(=O)OCCO[N+](=O)[O-])c2cc(F)ccc2/C1=C\c1ccc(S(C)(=O)=O)cc1	84.4	84.4	96.2	
CC1=C(CC(=O)OCCCCO[N+](=O)[O-])c2cc(F)ccc2/C1=C\c1ccc([S+](C)[O-])cc1 (centres undefined)	24.5	58.8	35.5	
CSc1ccc(/C=C2/C(C)=C(CC(=O)Oc3cccc(Oc4no[n+]([O-])c4S(=O)(=O)c4ccccc4)c3)c3cc(F)ccc32)cc1	80.7	81.1	88.3	
CSc1ccc(/C=C2/C(C)=C(CC(=O)O)c3cc(F)ccc32)cc1 [SULINDAC SULFIDE]	105	99.2	93.7	
CC1=C(CC(=O)O)c2cc(F)ccc2/C1=C\c1ccc(S(C)(=O)=O)cc1 [EXISULIND]	83.5	87.8	91	
CC1=C(CC(=O)NCCOC(=O)/N=c2/c[n+](-c3ccccc3)[n-]o2)c2cc(F)ccc2/C1=C\c1ccc([S+](C)[O-])cc1 (centres undefined)	41.4	76.7	46.4	inactive
CC1=C(CC(=O)OCC#CCOc2no[n+]([O-])c2S(=O)(=O)c2ccccc2)c2cc(F)ccc2/C1=C\c1ccc([S+](C)[O-])cc1 (centres undefined)	0	0	0	
CSc1ccc(/C=C2/C(C)=C(CC(=O)OCCOCCOc3no[n+]([O-])c3S(=O)(=O)c3ccccc3)c3cc(F)ccc32)cc1	50.8	55.2	71	
CC1=C(CC(=O)NCCNC(=O)/N=c2/c[n+](-c3ccccc3)[n-]o2)c2cc(F)ccc2/C1=C\c1ccc(S(C)(=O)=O)cc1	55.5	86.1	58.2	inactive
CC1=C(CC(=O)OCCCCO)c2cc(F)ccc2/C1=C\c1ccc([S+](C)[O-])cc1 (centres undefined)	96.5	96.6	76.9	
CC1=C(CC(=O)/N=c2\c[n+](-c3ccccc3)[n-]o2)c2cc(F)ccc2/C1=C\c1ccc(S(C)(=O)=O)cc1	81.1	108	74.5	
